Patent US9265189B2, “Method for reducing damage by harmful organisms in corn cultivation” (SUMITOMO CHEMICAL COMPANY, LIMITED, priority 2012, dated 2016)

Test system: Agriotes spp.
Assay: Field test, corn plants damaged by Agriotes spp. after in-furrow spray (Example 1)
Assay type: in vivo
Conditions: Example section 1: clothianidin 50 g/ha, in-furrow spray of Dantop 50WG aqueous suspension 100 L/ha, corn DK 440, 35 days after application; non-treatment section 43
Experimental: Using a pneumatic seeder (disk furrow opener, manufactured by Gaspardo) equipped with a power sprayer (trade name: WJR 2525, manufactured by HONDA), a cultivated land was ditched at intervals of 75 cm to a depth of 3 cm from the soil surface, and the furrow was seeded with corn (Zea Mays, trade name: DK 440; hybrid variety, manufactured by Monsanto) at intervals of 13 cm. A seeding density of corn was 100000 seeds/ha. Then, the furrow was spray-treated with an aqueous suspension of a clothianidin water dispersible granule (using a 50% dispersible granule, trade name: Dantop 50WG, manufactured by Philagro) at 100 L/ha so that the application amount of clothianidin was 50 g/ha, and then a soil on the side of the furrow was gathered together to close the furrow. This was defined as an example section 1. For comparison, a non-treatment section, which was seeded with corn without application of a clothianidin water dispersible granule, was provided. […] 35 days after application of the clothianidin water dispersible granule, the number of plants of corn damaged by Agriotes spp. in each of the example section 1 and the non-treatment section was investigated, a damage plant rate was calculated in accordance with the following equation, and then an average damage plants rate of the four investigation sections was determined. […]

CN/C(=N\[N+](=O)[O-])NCc1cnc(Cl)s1 [clothianidin]
Damage plant rate (%): 0%
